Patent US4301177A, “(3-Methyl-2-butenyl)propanedioic acid mono (1,2-diphenylhydrazide) and salts thereof” (Istituto de Angeli S.p.A., priority 1979, dated 1981)
Structures can show the parent of a compound that is named as a salt.

Experiments:
[1] = test system: rats; test: Effect on arthritis induced in rats by Freund's adjuvant (Table II); type: in vivo, male Sprague-Dawley rats; conditions: day 20
[2] = test system: mice; test: Analgesic activity, hot plate test in mice (Table III); type: in vivo, male Swiss mice
Procedure: (§1) In the present study the test compounds were administered perorally by means of a stomach tube as an aqueous suspension in 5% acacia gum at a constant volume of 10 ml/kg to male Swiss mice and male Sprague-Dawley rats. Control rats and mice were given a corresponding volume of the aqueous suspension medium. The results were statistically evaluated by Dunnett's test (C. V. Dunnett.: J.A. Stat. Ass., 40, 1096, 1955).
The analgesic activity was evaluated in mice by the hot plate test according to Janssen and Jageneau (J.Pharm.Pharmac., 9, 381, 1957).
The plate temperature was kept constant at 55° C.; the reaction time was determined before and 30, 60, 90 and 120 minutes after oral administration of the test compound. Average values after administration of the test compound were compared to those obtained before treatment.

[3] = test system: rats; test: Analgesic-anti-inflammatory activity, Randall and Selitto, brewer's yeast inflamed paw in rats (Table IV); type: in vivo, male Sprague-Dawley rats
Procedure: as §1
4. Analgesic-anti-inflammatory activity
The analgesic-anti-inflammatory activity was evaluated in rats by the method of Randall and Selitto (Arch. Int. Pharmacodyn., 111, 409, 1957), using an analgesimeter to measure the minimum load that must be applied to a rat's hind paw to elicit a painful stimulus.
Both the controls and the experimental rats were injected into the right hind paw with 0.1 ml of 20% brewer's yeast in sterile saline immediately before the administration of the test compound.
The volume of the inflamed right hind paw was measured 1, 2 and 4 hours after the administration of the test compound.
The analgesic-anti-inflammatory activity was evaluated using an "analgesic index" expressed as a ratio between the sum of the average weights (grams) necessary to provoke a painful stimulus at different times in treated and control animals.

[4] = test system: rats; test: Antipyretic activity, fever induced by brewer's yeast in rats (Table V); type: in vivo, male Sprague-Dawley rats
Procedure: as §1
The antipyretic activity was investigated in rats by the method of Niemegeers et al. (see Arzneim.Forsch. 25, 1519, 1975). The rectal temperature was measured immediately before and 4 hours after the subcutaneous injection of 1 ml/100 g body weight of a 15% brewer's yeast suspension in 1% acacia gum.
The test compound was administered orally to groups of 5 different rats per dose 4 hours after the yeast injection. The rectal temperature was measured 0.5, 1, 1.5, 2, 2.5, 3 and 19 hours after treatment.
(§2) Average values of the temperatures obtained in the treated rats were compared with those of control rats.

[5] = test system: rats; test: Effect on normal temperature of rats (Table VI); type: in vivo, male Sprague-Dawley rats
Procedure: as §1
6. Effect on normal temperature of rats
The rectal temperature was measured at 30-minute intervals before and after administration of the test compound, that is, at -1.5, -1, -0.5, 0.5, 1, 1.5 and 2 hours, using groups of 10 rats each for each dosage level.
as §2

[6] = test system: rats; test: Ulcerogenic effect, gastric lesions in rats (Table VIII); type: in vivo, male Sprague-Dawley rats; conditions: single dose; for % animals with gastric lesions: 16 h
Procedure: as §1
The ulcerogenic effect was determined in rats by the method of Niemegeers et al. (Arzneimittel-Forschung 25, 1537, 1975). A single oral dose was administered to groups of 15 rats fasted for 9 hours before treatment and kept fasting throughout the whole experimental period. The animals were sacrificed 16 hours after treatment; the severity of lesions was scored according to an arbitrary scale ranging from + to ++++. For each group of rats, an ulcerogenic index was calculated according to Pauls et al., (Gastroenterology 8, 774, 1947).

CCCCC(C(=O)O)C(=O)N(Nc1ccccc1)c1ccccc1 (centres unmarked) [B, Calcium salt of butylpropanedioic acid mono(1,2-diphenylhydrazide), reference compound]
% Inhibition ([1]; 40 mg/kg oral): 30%
% Inhibition ([1]; 80 mg/kg oral): 32%
% Inhibition ([1]; 160 mg/kg oral): 41.6%
Reaction time ([2]; 50 mg/kg oral, 0 (before administration)): 14.00 ± 3.80 s
Reaction time ([2]; 50 mg/kg oral, 30 min): 16.50 ± 3.60 s
Reaction time ([2]; 100 mg/kg oral, 0 (before administration)): 14.30 ± 2.67 s
Reaction time ([2]; 100 mg/kg oral, 90 min): 17.10 ± 4.48 s
Reaction time ([2]; 100 mg/kg oral, 120 min): 16.10 ± 2.56 s
Reaction time ([2]; 200 mg/kg oral, 0 (before administration)): 12.90 ± 2.92 s
Mean of the weights eliciting painful stimulus ([3]; 40 mg/kg oral, 1 h): 145.0 grams
Mean of the weights eliciting painful stimulus ([3]; 40 mg/kg oral, 2 h): 108.8 grams
Mean of the weights eliciting painful stimulus ([3]; 40 mg/kg oral, 4 h): 105.0 grams
Mean of the weights eliciting painful stimulus ([3]; 80 mg/kg oral, 1 h): 140 grams
Mean of the weights eliciting painful stimulus ([3]; 80 mg/kg oral, 2 h): 128.8 grams
Mean of the weights eliciting painful stimulus ([3]; 80 mg/kg oral, 4 h): 110.0 grams
Mean of the weights eliciting painful stimulus ([3]; 160 mg/kg oral, 1 h): 142.8 grams
Mean of the weights eliciting painful stimulus ([3]; 160 mg/kg oral, 2 h): 161.2 grams
Mean of the weights eliciting painful stimulus ([3]; 160 mg/kg oral, 4 h): 140.0 grams
Rectal temperature ([4]; 40 mg/kg oral, 0 h (4 h after yeast, before treatment)): 38.08 °C
Rectal temperature ([4]; 40 mg/kg oral, 0.5 h): 38.05 °C
Rectal temperature ([4]; 40 mg/kg oral, 1 h): 38.20 °C
Rectal temperature ([4]; 40 mg/kg oral, 1.5 h): 38.09 °C
Rectal temperature ([4]; 40 mg/kg oral, 2 h): 38.17 °C
Rectal temperature ([4]; 40 mg/kg oral, 2.5 h): 38.45 °C
Rectal temperature ([4]; 40 mg/kg oral, 3 h): 38.01 °C
Rectal temperature ([4]; 40 mg/kg oral, 19 h): 37.28 °C
Rectal temperature ([4]; 40 mg/kg oral, -4 h (before yeast)): 36.74 °C
Rectal temperature ([4]; 80 mg/kg oral, 0 h (4 h after yeast, before treatment)): 38.02 °C
Rectal temperature ([4]; 80 mg/kg oral, 0.5 h): 37.10 °C
Rectal temperature ([4]; 80 mg/kg oral, 1 h): 37.38 °C
Rectal temperature ([4]; 80 mg/kg oral, 1.5 h): 37.48 °C
Rectal temperature ([4]; 80 mg/kg oral, 2 h): 37.65 °C
Rectal temperature ([4]; 80 mg/kg oral, 2.5 h): 37.96 °C
Rectal temperature ([4]; 80 mg/kg oral, 3 h): 37.80 °C
Rectal temperature ([4]; 80 mg/kg oral, 19 h): 37.44 °C
Rectal temperature ([4]; 80 mg/kg oral, -4 h (before yeast)): 36.96 °C
Rectal temperature ([4]; 160 mg/kg oral, 0 h (4 h after yeast, before treatment)): 38.52 °C
Rectal temperature ([4]; 160 mg/kg oral, 0.5 h): 37.89 °C
Rectal temperature ([4]; 160 mg/kg oral, 1 h): 37.81 °C
Rectal temperature ([4]; 160 mg/kg oral, 1.5 h): 37.90 °C
Rectal temperature ([4]; 160 mg/kg oral, 2 h): 37.34 °C
Rectal temperature ([4]; 160 mg/kg oral, 2.5 h): 37.50 °C
Rectal temperature ([4]; 160 mg/kg oral, 3 h): 37.41 °C
Rectal temperature ([4]; 160 mg/kg oral, 19 h): 36.75 °C
Rectal temperature ([4]; 160 mg/kg oral, -4 h (before yeast)): 36.06 °C
Rectal temperature (normal rats) ([5]; 40 mg/kg oral, 0.5 h): 36.02 °C
Rectal temperature (normal rats) ([5]; 40 mg/kg oral, 1 h): 36.13 °C
Rectal temperature (normal rats) ([5]; 40 mg/kg oral, 1.5 h): 36.10 °C
Rectal temperature (normal rats) ([5]; 40 mg/kg oral, 2 h): 36.20 °C
Rectal temperature (normal rats) ([5]; 40 mg/kg oral, -0.5 h (before administration)): 36.33 °C
Rectal temperature (normal rats) ([5]; 40 mg/kg oral, -1 h (before administration)): 36.62 °C
Rectal temperature (normal rats) ([5]; 40 mg/kg oral, -1.5 h (before administration)): 37.15 °C
Rectal temperature (normal rats) ([5]; 80 mg/kg oral, 0.5 h): 36.14 °C
Rectal temperature (normal rats) ([5]; 80 mg/kg oral, 1 h): 36.27 °C
Rectal temperature (normal rats) ([5]; 80 mg/kg oral, 1.5 h): 36.31 °C
Rectal temperature (normal rats) ([5]; 80 mg/kg oral, 2 h): 36.47 °C
Rectal temperature (normal rats) ([5]; 80 mg/kg oral, -0.5 h (before administration)): 36.34 °C
Rectal temperature (normal rats) ([5]; 80 mg/kg oral, -1 h (before administration)): 36.51 °C
Rectal temperature (normal rats) ([5]; 80 mg/kg oral, -1.5 h (before administration)): 36.69 °C
Rectal temperature (normal rats) ([5]; 160 mg/kg oral, 0.5 h): 35.62 °C
Rectal temperature (normal rats) ([5]; 160 mg/kg oral, 1 h): 35.70 °C
Rectal temperature (normal rats) ([5]; 160 mg/kg oral, 1.5 h): 35.92 °C
Rectal temperature (normal rats) ([5]; 160 mg/kg oral, 2 h): 36.24 °C
Rectal temperature (normal rats) ([5]; 160 mg/kg oral, -0.5 h (before administration)): 36.00 °C
Rectal temperature (normal rats) ([5]; 160 mg/kg oral, -1 h (before administration)): 36.52 °C
Rectal temperature (normal rats) ([5]; 160 mg/kg oral, -1.5 h (before administration)): 36.50 °C
Body weight, mean ± standard deviation ([6]; 40 mg/kg oral): 194.67 ± 7.43 grams
% animals with gastric lesions ([6]; 40 mg/kg oral): 0%
Body weight, mean ± standard deviation ([6]; 80 mg/kg oral): 190.67 ± 8.84 grams
% animals with gastric lesions ([6]; 80 mg/kg oral): 0%
Body weight, mean ± standard deviation ([6]; 160 mg/kg oral): 198.00 ± 11.46 grams
% animals with gastric lesions ([6]; 160 mg/kg oral): 6.66%
Body weight, mean ± standard deviation ([6]; 320 mg/kg oral): 186.67 ± 7.24 grams
% animals with gastric lesions ([6]; 320 mg/kg oral): 64.28%
